One compound from EP3283473B1, “GHRELIN O-ACYL TRANSFERASE INHIBITORS” (Eli Lilly and Company, priority 2015, dated 2016) can be followed below.

The target of this assay is T1, human GOAT (Homo sapiens, UniProt Q96T53).
T1 construct: His; made in house; host or cells: Sf9 insect cells (baculovirus, pAN51 vector); microsomal membrane preparation
T1 sequence (Q96T53 1-435): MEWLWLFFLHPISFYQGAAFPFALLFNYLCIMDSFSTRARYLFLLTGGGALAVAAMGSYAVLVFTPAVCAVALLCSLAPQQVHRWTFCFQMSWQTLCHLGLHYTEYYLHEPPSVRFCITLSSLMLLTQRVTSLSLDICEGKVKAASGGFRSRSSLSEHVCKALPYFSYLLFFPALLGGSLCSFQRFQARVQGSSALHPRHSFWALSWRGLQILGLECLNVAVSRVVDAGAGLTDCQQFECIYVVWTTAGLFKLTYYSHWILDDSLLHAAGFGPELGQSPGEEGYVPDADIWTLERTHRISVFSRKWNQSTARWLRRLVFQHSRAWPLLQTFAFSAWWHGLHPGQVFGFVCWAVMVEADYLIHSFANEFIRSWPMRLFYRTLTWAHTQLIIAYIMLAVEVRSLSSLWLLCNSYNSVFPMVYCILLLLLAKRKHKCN
Nature of the assay: In vitro cell free human GOAT enzymatic assay. Type of assay: biochemical. As to conditions: GOAT-His/sf9 membrane preparation. As to the method: Human GOAT gene (Accession number: NM_001100916) is subcloned to pAN51 baculoviral expression vector. Baculovirus stock is prepared following the Bac-to-Bac Protocol provided by the vendor, Invitrogen, California, USA. Five mililiters of human GOAT baculoviral stock are added to 500 mL Sf9 cells in HyQ SFX-Insect™ media (HyClone catalog number SH30278.02) at the density of 1 × 10^6 cells per milliliter in a 2 L Erlenmeyer flask. The flask with human GOAT gene infected Sf9 cells is put on a plate shaker at 120 rpm at 28 °C for 48 hours. After 48 hours incubation, cells are centrifuged at 1,000xg for 10 min at 4 °C. The cell pellets are collected and stored at -80 °C in a freezer until ready for further processing.
One gram cell pellets are suspended in 9 mL chilled homogenization buffer (50 mM Tris-HCl, 250 mM sucrose, adjusted to pH 7.5 and sterile filtered through 0.2 µm Millipore filter). The cell suspension is transferred to a Dounce glass homogenizer. Cell pellets are homogenized with 40 strokes on ice. The homogenate is centrifuged at 3,000 rpm in a Beckman swing bucket rotor at 4 °C for 10 min to remove unbroken cells. The supernatant is collected and centrifuged at 40,000 xg for 1 hour at 4 °C. The resulting membrane pellet is suspended in the homogenization buffer using a Dounce glass homogenizer and stored at -20 °C in the freezer for the assay. For long term storage of the human GOAT enzyme membrane preparation, the suspended membrane is stored in a -80 °C freezer.
Prepare test compounds in DMSO to make up a 0.2 mM stock solution. Serially dilute the stock solution in DMSO to obtain a ten-point dilution curve with final compound concentrations ranging from 10 µM to 0.5 nM in a 96-well round-bottom plate. Prepare enzyme and substrate solutions in assay buffer (0.02% TWEEN™-20 in 50 mM Tris, pH 7.5/250 mM sucrose/1 mg/mL BSA/10 mM EDTA). Add diluted compound (1 µL) to each well of row A to N of a corresponding low protein binding 384 well plate. Add human GOAT substrate mix (10 µL), consisting of human desacyl-ghrelin-biotin (CPC Scientific Inc., 6.0 µM final), octanoyl-coenzyme A (CoA) (Sigma, 60 µM final) and an AG specific antibody (WO 2006/091381)(1.0 µg/mL final), to the compounds. Add GOAT-His/sf9 enzyme preparation, that has been prepared in assay buffer (9 µL), to each well of the plate containing substrate and test compounds resulting in a final concentration of 0.01 µg/mL to initiate the reaction. Incubate the mixture for 1 hour at RT on a gently rotating oscillator. Add 4M guanidine hydrochloride (20 µL) to all wells, mix, and incubate for 3 hours to stop the reaction.
Prepare ELISA plates (STREPTAVIDIN SPECTRAPLATE™ 384, Perkin Elmer) by blocking with 2% Heat-Inactivated FBS in PBS (40 µL) (Invitrogen) blocking buffer for 3 hours. Aspirate the blocking buffer from ELISA plate and add blocking buffer (23 µL) to columns 1-24, rows A-N. Reserve rows O and P for the acylghrelin standard curve. Add the reaction mix (2 µL) to the ELISA plates. Prepare a 10 point standard curve (biotin-labeled octanoyl-ghrelin) by serial 2X dilution in blocking buffer containing 0.2M Guanidine hydrochloride starting at 2.5 pM. Incubate the reaction mixture or biotin-labeled AG standard in the ELISA plate overnight at 4 °C. The following day, wash the plate 3× with wash buffer (0.1% TWEEN™-20/PBS, 100 µL per well in each wash cycle). […] Read plates at 450 nm using an ENVISION® Multilabel plate reader. […]

For orientation: IC20 means the concentration at which the effect reaches the 20% level. Low readings indicate greater potency, high ones weaker potency. For `Cc1nc(C(F)(F)F)nc(N)c1CCC1CCN(C(=O)[C@H](C)NC(=O)c2ccnn2C)CC1` [Example 2, N-[(1S)-2-[4-[2-[4-Amino-6-methyl-2-(trifluoromethyl)pyrimidin-5-yl]ethyl]-1-piperidyl]-1-methyl-2-oxo-ethyl]-2-methyl-pyrazole-3-carboxamide], the IC20 is 69.5 ± 0.6 nM.
